Calls of active or inactive are those of the source. The calls are words filed in the database; no cut-off is given here.
Legend:
DU-145 [1] = assay: Growth inhibition of human DU145 cells after 3 days by SRB assay
NIH3T3 [2] = assay: Inhibition of serum-stimulated growth of NIH3T3 cells transfected with HER14 after 3 days by SRB assay
NIH3T3 [3] = assay: Inhibition of serum-stimulated growth of NIH3T3 cells after 3 days by SRB assay
DU-145 [4] = assay: Induction of cell cycle arrest in human DU145 cells assessed as accumulation at G1 phase at 10 uM after 24 hrs by flow cytometry; format: functional, cell-based
DU-145 [5] = assay: Induction of DNA interstand cross links in human DU145 cells assessed as decrease in comet tail moment after irradiation by single cell gel electrophoresis assay; format: functional, cell-based
DU-145 [6] = assay: Induction of cell cycle arrest in human DU145 cells assessed as accumulation at mid-S phase at 10 uM after 24 hrs by flow cytometry; format: functional, cell-based
[7] = target: Epidermal growth factor receptor (Homo sapiens, UniProt P00533); assay: Inhibition of EGFR tyrosine kinase expressed in A431 cells
Epidermal growth factor receptor, sequence (P00533 whole entry): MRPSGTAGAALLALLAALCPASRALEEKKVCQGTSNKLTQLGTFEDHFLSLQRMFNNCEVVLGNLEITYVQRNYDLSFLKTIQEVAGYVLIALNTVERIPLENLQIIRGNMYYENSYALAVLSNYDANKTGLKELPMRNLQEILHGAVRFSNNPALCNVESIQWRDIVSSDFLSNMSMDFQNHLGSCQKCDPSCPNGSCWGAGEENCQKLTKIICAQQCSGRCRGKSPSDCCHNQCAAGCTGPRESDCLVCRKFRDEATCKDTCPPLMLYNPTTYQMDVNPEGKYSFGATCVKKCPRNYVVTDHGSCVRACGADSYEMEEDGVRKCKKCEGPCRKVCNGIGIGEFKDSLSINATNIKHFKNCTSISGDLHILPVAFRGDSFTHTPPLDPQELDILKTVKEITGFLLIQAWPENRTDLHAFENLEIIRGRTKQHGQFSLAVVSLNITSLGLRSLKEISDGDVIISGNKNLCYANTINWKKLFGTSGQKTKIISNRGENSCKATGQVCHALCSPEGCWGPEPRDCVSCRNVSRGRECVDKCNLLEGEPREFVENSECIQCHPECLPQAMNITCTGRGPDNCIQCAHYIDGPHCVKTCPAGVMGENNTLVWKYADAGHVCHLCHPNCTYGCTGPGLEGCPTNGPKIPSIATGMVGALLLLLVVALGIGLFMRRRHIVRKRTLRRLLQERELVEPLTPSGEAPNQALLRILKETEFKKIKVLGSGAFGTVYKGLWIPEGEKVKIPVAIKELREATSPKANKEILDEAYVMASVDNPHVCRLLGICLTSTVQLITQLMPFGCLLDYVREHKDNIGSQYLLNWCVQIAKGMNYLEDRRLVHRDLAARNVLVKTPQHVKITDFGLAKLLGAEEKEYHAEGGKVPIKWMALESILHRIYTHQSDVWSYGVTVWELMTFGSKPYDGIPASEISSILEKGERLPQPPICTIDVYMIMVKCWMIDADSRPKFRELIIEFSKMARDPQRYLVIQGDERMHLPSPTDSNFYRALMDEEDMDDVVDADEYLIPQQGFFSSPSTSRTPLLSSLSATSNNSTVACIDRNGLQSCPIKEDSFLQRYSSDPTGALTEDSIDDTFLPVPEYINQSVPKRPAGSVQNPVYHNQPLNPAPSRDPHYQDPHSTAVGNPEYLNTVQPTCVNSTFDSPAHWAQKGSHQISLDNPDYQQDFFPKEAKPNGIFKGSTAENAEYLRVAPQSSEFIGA

`Nc1ccc2ncnc(Nc3cccc(Cl)c3)c2c1` showed an IC50 (DU-145 [1]; du-145) of 34.1 µM, an IC50 (NIH3T3 [2]; nih3t3) of 3.19 µM and an IC50 (NIH3T3 [3]; nih3t3) of 38.4 µM.
For `CN(CCCl)CCN/N=N/c1ccc2ncnc(Nc3cccc(Cl)c3)c2c1`, the Activity (DU-145 [4]) was “Active”, the IC50 (DU-145 [1]; Homo sapiens, DU-145, 72 h) was 2.6 µM and the Activity (DU-145 [5]) was “Dose-dependent effect”. The Activity (DU-145 [6]) was “Active”, the IC50 [7] was 0.0044 µM and the IC50 (NIH3T3 [2]; Mus musculus, NIH3T3, 72 h) was 1.31 µM. It also gave an IC50 (NIH3T3 [3]; Mus musculus, NIH3T3, 72 h) of 27.2 µM.
With `CN(C)CCN/N=N/c1ccc2ncnc(Nc3cccc(Cl)c3)c2c1` the IC50 (DU-145 [1]; Homo sapiens, DU-145, 72 h) was 37.2 µM, the IC50 [7] was 0.037 µM and the IC50 (NIH3T3 [2]; Mus musculus, NIH3T3, 72 h) was 1.67 µM. For the same compound, the IC50 (NIH3T3 [3]; Mus musculus, NIH3T3, 72 h) was 39.5 µM.
With `COc1ccc(N(CCCl)CCN/N=N/c2ccc3ncnc(Nc4cccc(Cl)c4)c3c2)cc1` the IC50 (DU-145 [1]; Homo sapiens, DU-145, 72 h) was 7.95 µM, the IC50 [7] was 3.96 µM and the IC50 (NIH3T3 [2]; Mus musculus, NIH3T3, 72 h) was 6.22 µM. The IC50 (NIH3T3 [3]; Mus musculus, NIH3T3, 72 h) was 9.07 µM.
Work on `COc1ccc(N(CCN=NNc2ccc3ncnc(Nc4cccc(Cl)c4)c3c2)CC(C)Cl)cc1` (stereo not given) yielded an IC50 (DU-145 [1]; Homo sapiens, DU-145, 72 h) of 11.4 µM, an IC50 [7] of 0.97 µM and an IC50 (NIH3T3 [2]; Mus musculus, NIH3T3, 72 h) of 5.75 µM. For the same compound, the IC50 (NIH3T3 [3]; Mus musculus, NIH3T3, 72 h) was 21.5 µM.
For `ClCCN(CCNN=Nc1ccc2ncnc(Nc3cccc(Cl)c3)c2c1)c1ccc(Cl)cc1`, the IC50 (DU-145 [1]; Homo sapiens, DU-145, 72 h) was 4.7 µM, the IC50 [7] was 2.2 µM and the IC50 (NIH3T3 [2]; Mus musculus, NIH3T3, 72 h) was 12 µM. For the same compound, the IC50 (NIH3T3 [3]; Mus musculus, NIH3T3, 72 h) was 27.6 µM.
For `ClCCN(CCNN=Nc1ccc2ncnc(Nc3cccc(Cl)c3)c2c1)Cc1ccccc1`, the IC50 (DU-145 [1]; Homo sapiens, DU-145, 72 h) was 10.6 µM, the IC50 [7] was 0.071 µM and the IC50 (NIH3T3 [2]; Mus musculus, NIH3T3, 72 h) was 2.93 µM. It also gave an IC50 (NIH3T3 [3]; Mus musculus, NIH3T3, 72 h) of 15.2 µM.

Source: ChEMBL document CHEMBL1143067, “Novel nitrogen mustard-armed combi-molecules for the selective targeting of epidermal growth factor receptor overexperessing solid tumors: discovery of an unusual structure-activity relationship” (J Med Chem, 2007)
